Experimental data as given in US20240271226A1, “METHODS OF PATHOGEN IDENTIFICATION AND ANTIMICROBIAL SUSCEPTIBILITY TESTING” (priority 2020, published 2024).
Where “and” joins values, the source holds several entries; their conditions need not be identical. Equal entries are not always repeated. {FAM-O} = FAM dye attached through an O linker at the PNA N-terminus; {IABk} = Iowa Black quencher

Key:
[1] = test system: E. coli ATCC 25922 16S rRNA; assay: Bulk PNA probe hybridization assay in urine, LIF detection; assay type: binding; conditions: ~10^9 CFU/mL E. coli ATCC 25922 spiked in urine; 2 min 95° C. lysis, 30 min 60° C. hybridization
Description: (§1) PNA probes were designed to target specific regions in the 16S rRNA for organisms belonging to the Enterobacterales (EB) order, the E. coli and P. mirabilis species (EC and PM), and the eubacterial kingdom (UNI), based on previous work (52, 72) (Table 1). The EB, EC, and PM probes were labeled with a FAM fluorophore, whereas the universal probe was labeled with an Alexa546 fluorophore. For each PNA probe, a short complementary DNA quencher was designed labeled with an Iowa Black® dark quencher. All probes were synthesized by PNA Bio (Newbury Park, CA), and all DNA quencher strands were synthesized by Integrated DNA Technologies (San Diego, CA). Probes and quenchers were stored in a custom hybridization buffer consisting of 50 mM NaCl, 25 mM Tris-HCl pH 8.0, and 0.5% polyvinylpyrrolidone (PVP) at −20° C. PVP is included to reduce the likelihood of probes being adsorbed to or retained by the walls of the PDMS devices. Prior to each experiment, individual aliquots of PNA probes were first thawed at 60° C. for 10 min to ensure full dissolution of the PNA stock into the hybridization buffer. For both bulk-based and droplet experiments, 200 nM PNA probes were mixed with 600 nM of the corresponding quencher in the custom hybridization buffer, and this solution was either mixed in bulk or co-encapsulated into droplets at a 1:1 ratio along with bacteria-containing urine and/or MH suspensions. An appropriate dosage of antibiotics was included in this mixture if required for the experiment.
(§2) We first verified that the probes can specifically detect target bacteria spiked into urine. […] We spiked ˜10^9 CFU/mL (equivalent to 1 cell in a ˜1 pL droplet) of standard reference strains of E. coli ATCC 25922, P. mirabilis ATCC 12453, K. pneumoniae ATCC BAA 1705, and P. aeruginosa ATCC 27853 into a mixture of culture-negative (i.e., blank) urine samples and hybridization buffer with each PNA probe. Each sample was subjected to 2 min of thermal lysis at 95° C. and 30 min of hybridization at 60° C., and then detected at room temperature within a 10 μm-wide microfluidic detection channel by our 2-color LIF detector (FIG. 6).

[2] = test system: K. pneumoniae ATCC BAA 1705 16S rRNA; assay: as above; assay type: binding; conditions: ~10^9 CFU/mL K. pneumoniae ATCC BAA 1705 spiked in urine; 2 min 95° C. lysis, 30 min 60° C. hybridization
Description: as §1, §2

[3] = test system: P. aeruginosa ATCC 27853 16S rRNA; assay: as above; assay type: binding; conditions: ~10^9 CFU/mL P. aeruginosa ATCC 27853 spiked in urine; 2 min 95° C. lysis, 30 min 60° C. hybridization
Description: as §1, §2

[4] = test system: P. mirabilis ATCC 12453 16S rRNA; assay: as above; assay type: binding; conditions: ~10^9 CFU/mL P. mirabilis ATCC 12453 spiked in urine; 2 min 95° C. lysis, 30 min 60° C. hybridization
Description: as §1, §2

[5] = Tm of designed PNA probes; assay type: physicochemical
Description: as §1, with “An appropriate dosage of antibiotics was included in this mixture if required for the experiment.” left out

[6] = test system: multi-drug resistant E. coli ATCC BAA 2471; assay: Bulk pheno-molecular AST by 16S rRNA hybridization detection; assay type: cell-based; conditions: gentamicin 8 μg/mL, 20 μL bulk, 0-120 min at 37° C., EC PNA probe
Description: (§3) We note that we can achieve preliminary pheno-molecular AST by directly detecting PNA-to-16S rRNA hybridization in the bulk format via the LIF detector, though only after relatively lengthy antibiotic exposure. […] We then determined the relative fluorescence intensity—the ratio between the fluorescence intensities of the gentamicin-dosed cells and the gentamicin-free cells—for both strains for each culture duration.

[7] = test system: reference E. coli ATCC 25922; assay: as above; assay type: cell-based
Description: as §3

E. coli cells = assay: In-droplet single-cell 16S rRNA AST in MH broth; assay type: cell-based
Description: A custom MATLAB program was developed for analyzing the raw fluorescence intensity data acquired from the APD. From the fluorescence intensity time trace of each experimental run, the program looks for individual droplets by quantifying peak widths and peak heights. Once droplet position and fluorescence intensity were identified for all droplets in a sample, the intensities were plotted as a histogram with ˜150 bins. Resulting histograms typically follow a bimodal distribution, and in order to classify the respective subpopulations, the first droplet histogram peak (“empty droplets”) were fitted with a Gaussian curve. Based on the fitted curve, the mean intensity of the empty droplet population as well as the standard deviation were calculated. All droplets whose intensities were 5 standard deviations above the empty droplet mean intensity were counted as bacteria-containing “positive droplets.” Signal to background ratios were calculated by dividing the mean intensity of positive droplets by the mean intensity of empty droplets.
We first co-encapsulated the EC probe and E. coli cells, which were spiked into Mueller-Hinton broth (MH), into picoliter droplets. […]

reference E. coli = assay: In-droplet single-cell 16S rRNA AST in spiked urine; assay type: cell-based; conditions: gentamicin 8 μg/mL, urine with 2×MH broth, 37° C. for 30, 15, 10 or 5 min
[8] = test system: multi-drug resistant E. coli; assay: as above; assay type: cell-based; conditions: gentamicin 8 μg/mL, urine with 2×MH broth, 37° C. for 30, 15, 10 or 5 min
Description: We next sought to minimize the culture/antibiotic exposure time for assessing antimicrobial susceptibility in urine. We separately digitized reference and multi-drug resistant E. coli-spiked urine samples, each along with 2×MH broth and EC PNA probes in droplets without and with gentamicin (bactericidal concentration of 8 μg/mL). Each gentamicin-free and gentamicin-dosed droplet group pair was then incubated at 37° C. for 30, 15, 10, or 5 min, followed by lysis, hybridization, and LIF detection (FIG. 13B). Longer bacterial culture result in higher production of 16S rRNA in gentamicin-free bacterial cells and therefore increased positive droplet frequencies. […] The effect of gentamicin on the two strains can be differentiated after as short as 10 min culture/antibiotic exposure, the minimum time at which there is no overlap between the error envelopes around the normalized positive droplet populations. […] As a result, we achieve assessment of antimicrobial susceptibility faster than the average replication time of an E. coli cell, a feat that ultimately paves the way for integrating molecular ID and AST to well under 30 min.
Finally, we investigated the utility of our single-cell 16S rRNA-based phenomolecular AST approach against 3 clinically important antibiotics. […]. […]

[9] = test system: multi-drug resistant strain of E. coli (ATCC BAA 2471); conditions: cited from earlier work
uropathogenic E. coli = conditions: Baltimore, USA; cited from earlier work

## UNI probe: Alexa546-labeled pan-bacteria PNA probe GCTGCCTCCCGTAGGA-K-Alexa546 targeting eubacterial 16S rRNA, with DNA quencher GGAGGGCATCCT-IABk (PNA, lysine-Alexa546, DNA quencher strand, chemistry not fully specified)
[1]
  probe fluorescence signal in the presence of target bacteria over blank urine background: successfully detects
[2]
  probe fluorescence signal in the presence of target bacteria over blank urine background: successfully detects
[3]
  probe fluorescence signal in the presence of target bacteria over blank urine background: successfully detects
[4]
  probe fluorescence signal in the presence of target bacteria over blank urine background: successfully detects
[5]
  Tm: 80.5 °C

## gentamicin
[6]
  relative fluorescence intensity (gentamicin-dosed cells / gentamicin-free cells): ~1
[7]; bulk format, vs multi-drug resistant E. coli BAA 2471
  culture/antibiotic exposure needed to see or differentiate the effect on susceptible vs resistant E. coli: > 90 min and 90 min
[7]; gentamicin 8 μg/mL, 20 μL bulk, 0-120 min at 37° C., EC PNA probe
  relative fluorescence intensity (gentamicin-dosed cells / gentamicin-free cells): significantly lower relative fluorescence intensities
E. coli cells; E. coli in MH broth, droplets
  normalized positive droplet population versus antibiotic concentration: decreases as the concentration of gentamicin increases
E. coli cells; gentamicin 128 μg/mL, 30 min culture/antibiotic exposure, MH broth, 4×10^7 CFU/mL E. coli, no-antibiotic control 7.70%
  frequency of positive droplets: 3.12%
Reference E. coli
  normalized positive droplet population: decreasing normalized positive droplet population over increasing culture times
[8]
  normalized positive droplet population: comparatively higher and relatively unchanging normalized positive droplet population
[9]
  reported resistance of the strain: resistant

## CC1(C)S[C@@H]2[C@H](NC(=O)[C@H](N)c3ccccc3)C(=O)N2[C@H]1C(=O)O [ampicillin]
[9]
  reported resistance of the strain: resistant

## O=C(O)c1cn(C2CC2)c2cc(N3CCNCC3)c(F)cc2c1=O [ciprofloxacin]
[9]
  reported resistance of the strain: resistant
Uropathogenic E. coli
  resistance rate: ≤ 31%

## EC probe: FAM-labeled PNA probe FAM-O-TCAATGAGCAAAGGT-KK targeting E. coli 16S rRNA, with Iowa Black DNA quencher IABk-AGTTACTCGT (chain 1: all peptide nucleic acid (PNA), 5' {FAM-O}; chain 2: DNA, 5' {IABk}, backbone and methylation of C not given here; PNA carries two C-terminal lysines)
[1]
  probe fluorescence signal in the presence of target bacteria over blank urine background: significantly higher signal
[5]
  Tm: 76.3 °C
